# Assay results reported in patent publication US10696637B2, “Nitrogen-containing heterocyclic compound” (FUJIFILM Corporation, priority 2015, dated 2020).
# System: CXCL10 production
# Assay: CXCL10 production inhibition test
# Type: cell-based
# Details: Endothelial cell; test compound 0.1 μmol/L; human umbilical vein-derived endothelial cells; TNFα 10 ng/mL; supernatant 72 hours after stimulation; ELISA; read-out: Rate of inhibition of CXCL10 production
# Description: (CXCL10 Production Inhibition Test)
# 0.5×10^4 or 1×10^4 human umbilical vein-derived endothelial cells were suspended in 100 μL of an EGM-2 BulletKit medium (without GA) or a Medium-200 medium supplemented with an EGM-2 SingleQuots kit (without GA), inoculated to a 96-well plate and cultured overnight. 100 μL of a solution of each test compound diluted with the same medium as that used in the inoculation was added to the cultured cells (final concentration of the test compound: 0.1 μmol/L). 1 hour thereafter, TNFα was added thereto at a final concentration of 10 ng/mL. 72 hours after the stimulation, the supernatant was recovered, and the amount of CXCL10 produced in the culture supernatant was determined using an ELISA kit (Peprotech, 900-109).
# The rate of inhibition was calculated according to the following expression: Rate of inhibition (%)=100−(Amount of CXCL10 produced in the presence of the test compound/Amount of CXCL10 produced in the absence of the test compound)×100
row,Structure (SMILES),inhibition at 0.1 µM [%]
1,"CCC1C(=O)N(c2ccccc2)N(c2ccc3c(c2)c(C2CC2)cc(=O)n3CC)C1=O (stereo not shown) [Example 281, 1-(4-cyclopropyl-1-ethyl-2-oxo-1,2-dihydroquinolin-6-yl)-4-ethyl-2-phenylmazolidine-3,5-dione]",≥ 50
2,"CCn1c(=O)cc(N2CCOCC2)c2cc(-n3c(-c4ccc(C(F)(F)F)cc4)c[nH]c3=O)ccc21 [Example 272, 1-ethyl-6-(2-oxo-5-(4-(trifluoromethyl)phenyl)-2,3-dihydro-1H-imidazol-1-yl)-4-(morpholin-4-yl)quinolin-2(1H)-one]",≥ 50
3,"CCn1c(=O)cc(C2CC2)c2cc(-n3c(=O)[nH]c(=O)n3-c3ccccc3)ccc21 [Example 248, 1-(4-cyclopropyl-1-ethyl-2-oxo-1,2-dihydroquinolin-6-yl)-2-phenyl-1,2,4-triazolidine-3,5-dione]",≥ 50
4,"CCn1c(=O)cc(C)c2cc(-c3cccnc3-c3ccccc3)ccc21 [Example 291, 1-ethyl-4-methyl-6-(2-phenylpyridin-3-yl)quinolin-2(1H)-one]",≥ 50
5,"CCn1c(=O)cc(N2CCOCC2)c2cc(-n3c(-c4ccccc4)cn(CCO)c3=O)ccc21 [Example 262, 1-ethyl-6-(3-(2-hydroxyethyl)-2-oxo-5-phenyl-2,3-dihydro-1H-imidazol-1-yl)-4-(morpholin-4-yl) quinolin-2(1H)-one]",≥ 50
6,"CCn1c(=O)cc(C2CC2)c2cc(-c3nc(C)[nH]c3-c3ccccc3)ccc21 [Example 283, 4-cyclopropyl-1-ethyl-6-(2-methyl-5-phenyl-1H-imidazol-4-yl)quinolin-2(1H)-one]",≥ 50
7,"CCn1c(=O)cc(C2CCN(C)CC2)c2cc(C(=O)N(C)c3ccc(C)cc3)ccc21 [Example 14, 1-ethyl-N-methyl-N-(4-methylphenyl)-4-(1-methylpiperidin-4-yl)-2-oxo-1,2-dihydroquinoline-6-carboxamide]",≥ 50
8,"CCn1c(=O)cc(C2CC2)c2cc(-n3c(-c4ccc(C(F)(F)F)cc4)c[nH]c3=O)ccc21 [Example 268, 4-cyclopropyl-1-ethyl-6-(2-oxo-5-(4-(trifluoromethyl)phenyl)-2,3-dihydro-1H-imidazol-1-yl)quinolin-2(1H)-one]",≥ 50
9,"CCn1c(=O)cc(C2CCN(C)CC2)c2cc(C(=O)N(C)c3ccc(C)c(C)c3)ccc21 [Example 294, N-(3,4-dimethylphenyl)-1-ethyl-N-methyl-4-(1-methylpiperidin-4-yl)-2-oxo-1,2-dihydroquinoline-6-carboxamide]",≥ 50
10,"CCn1c(=O)cc(N2CCOCC2)c2cc(-n3c(-c4ccccc4)cn(C(C)C)c3=O)ccc21 [Example 247, 1-ethyl-4-(morpholin-4-yl)-6-(2-oxo-5-phenyl-3-(propan-2-yl)-2,3-dihydro-1H-imidazol-1-yl)quinolin-2(1H)-one]",≥ 50
11,"CCn1c(=O)cc(C2CCN(C)CC2)c2cc(C(=O)N(C)c3ccc4c(c3)CCC4)ccc21 [Example 17, N-(2,3-dihydro-1H-inden-5-yl)-1-ethyl-N-methyl-4-(1-methylpiperidin-4-yl)-2-oxo-1,2-dihydroquinoline-6-carboxamide]",≥ 50
12,"CCn1c(=O)cc(N2CCOCC2)c2cc(-n3c(-c4ccccc4)c[nH]c3=O)ccc21 [Example 3, 1-ethyl-4-(morpholin-4-yl)-6-(2-oxo-5-phenyl-2,3-dihydro-1H-imidazol-1-yl)quinolin-2(1H)-one]",≥ 50
13,"CCCCn1cc(-c2ccccc2)n(-c2ccc3c(c2)c(N2CCOCC2)cc(=O)n3CC)c1=O [Example 264, 6-(3-butyl-2-oxo-5-pheynyl-2,3-dihydro-1H-imidazazol-1-yl)-1-ethyl-4-(morpholin-4-yl)quinolin-2(1H)-one]",≥ 50
14,"CCn1c(=O)cc(C2CC2)c2cc(-n3c(-c4ccc(Cl)cc4)c[nH]c3=O)ccc21 [Example 271, 6-(5-(4-chlorophenyl)-2-oxo-2,3-dihydro-1H-imidazol-1-yl)-cyclopropyl-1-ethylquinolin-2(1H)-one]",≥ 50
15,"CCn1c(=O)cc(N2CCOCC2)c2cc(-n3c(-c4ccccc4)cn(CCN4CCCCC4)c3=O)ccc21 [Example 259, 1-ethyl-4-(morpholin-4-yl)-6-(2-oxo-5-phenyl-3-(2-(piperidin-1-yl)ethyl)-2,3-dihydro-1H-imidazol-1-yl)quinolin-2(1H)-one]",≥ 50
16,"CCCn1cc(-c2ccccc2)n(-c2ccc3c(c2)c(N2CCOCC2)cc(=O)n3CC)c1=O [Example 265, 1-ethyl-4-(morpholin-4-yl)-6-(2-oxo-5-phenyl-3-propyl-2,3-dihydro-1H-imidazol-1-yl)quinolin-2(1H)-one]",≥ 50
